Laboratory results as given in patent US20110097409A1, “PARTICLES COMPRISING A SALT OF 8-HYDROXY-2-[[(1R)-2-(4-METHOXYPHENYL)-1-METHYLETHYL]AMINO]ETHYL]-2(1H)-QUINOLINONE HAVING IMPROVED ADHESION PROPERTIES FOR POWDER FORMULATIONS FOR INHALATION” (Chiesi Farmaceutici S.p.A., priority 2008, published 2011).
Structures can show the parent of a compound that is named as a salt.

Columns and labels:
[1] = Force and work of adhesion by atomic force microscopy (colloid probe); assay type: physicochemical; settings: against smooth lactose carrier
From the text: The force of adhesion of the batches of powder particles obtained in Example 1 has been determined according to the procedure reported hereafter in comparison to those to those of micronised carmoterol hydrochloride and budesonide raw materials (r.m.) obtained by a conventional milling process.
As a substrate, alpha-lactose particles with a smooth surface having the characteristics reported in EP 1 196 146 and obtained as therein described are used.
An Atomic Force Microscope (AFM) as a scanning probe microscope is used to image lactose surface on an nm or even sub-nm level and to measure surface forces between the powder particles of the invention and particles of smoothed lactose.
A way to get information on the surface forces which are acting in a system and to illustrate the functioning of an AFM, is to use the “Force-Mode”. This is done by moving the tip towards and away from the surface. Recording photodetector signal as a function of z-piezo elongation yields a curve which can be interpreted as a force-vs.-distance-curve. In this work, this technique has been employed to measure the drug-carrier adhesion force modifying the original cantilever.
The interaction of the micron-sized carmoterol particles with lactose carrier surfaces is conducted using the Explorer AFM (Thermomicroscopes, UK). A multistage micromanipulation method for the attachment of micrometer-sized drug particles to tipless cantilevers was adapted from the method described by Preuss and Butt (Preuss M, Butt H-J. 1998, Langmuir, 14:3164-3174). Essentially, colloid probes are prepared by mounting an individual drug particle (approximate diameter 3-5 μm) onto a V-shaped tiples silicon nitride cantilever (spring constant k=0.58 N/m, Veeco Instruments Ltd., Cambridge, UK) using a quick-setting epoxy resin together with the custom-built microscope.
Force separation measurements are collected using layered imaging mode to produce multiple force distance curves (n=250) between each drug probe at three surface sites over a 10 μm×10 μm area. As the variability in probe contact radius geometry was unknown each study is performed at least in triplicate (n=3 to 4 probes for each measurement).
The displacement curves for each of the 250 contact points in the 10 μm×10 μm sector are plotted using a custom built MatLab program (The Mathworks Inc. USA).
The force of adhesion (the apex of the adhesion peak) and the work of adhesion (integrated area of the adhesion peak) is calculated for each graph. […] Outliers are defined as data points outside the 5-95% limits of the normal distributions obtained, and these are removed automatically by the batch conversion software. […]

[2] = Shape factor SF and particle shape from SEM images; assay type: physicochemical
Protocol: Accordingly, the powder particles of the invention are characterized by a “shape factor” SF comprised between 0.8 and 1.0, preferably from 0.85 and 0.95 as determined according to the following equation reported in Kumar S et al., Curr. Appl. Phys. Influence of metal powder shape on drag coefficient in a spray jet, 2008, in press doi:10.1016/j.cap.2008.06.005.
RN indicates the roundness of the particle and is calculated by applying the following formula: […]
wherein p and A are the mean perimeter and area values, respectively, of ten spherical particles as measured from Scanning electron microscopy (SEM) images.
The shape factor of the obtained particles, calculated according to the equation reported in the Detailed Description of the Preferred Embodiments, turned out to be comprised between 0.87 and 0.95.

- Force of adhesion Fmax ([1]; particle population (20%)): 11.03 ± 1.27 (20%) nN
- Work of adhesion Wad ([1]; particle population (20%)): 413.15 ± 131.85 µJ
- Force of adhesion Fmax ([1]; particle population (80%)): 42.68 ± 4.63 (80%) nN
- Work of adhesion Wad ([1]; particle population (80%)): 2115.69 ± 344.31 µJ
- shape factor SF ([2]; SF=1/RN, RN=p^2/4πA, from SEM images): 0.51
- particle shape by SEM inspection ([2]; scanning electron microscope, FIG. 1): different irregular flakes and/or sheets
SMILES: COc1ccc(C[C@@H](C)NC[C@H](O)c2ccc(O)c3[nH]c(=O)ccc23)cc1 [Carmoterol HCl r.m., 8-hydroxy-5-[(1R)-1-hydroxy-2-[[(1R)-2-(4-methoxyphenyl)-1-methylethyl]amino]ethyl]-2(1H)-quinolinone]
